According to patent publication US4795748A, “Antibacterial 7-oxo-4-thia-1-azabicyclo[3,2,0]hept-2-ene derivatives” (Hoechst UK Limited, priority 1984, dated 1989):
Values after ≈ are worked out from the molar mass of the structure shown.

Legend:
Type in all cases: cell-based
Kl. aerog. 1082 E = assay: agar dilution test, MIC, Kl. aerog. 1082 E; details: Mueller Hinton agar, 16 to 18 hours, 37° C., read-out: Minimum Inhibitory Concentration
Description: (§1) The antimicrobial activity was determined by measuring the Minimum Inhibitory Concentration (MIC). The MIC of the compounds was determined by a standard test, the "agar dilution test" according to Lorian (Antibioticsin Laboratory Medicine, Williams and Wilkins, Baltimore/London 1980) as follows:
(§2) A two-fold decreasing concentration series of each compound was prepared in Petri dishes containing 15 ml of Mueller Hinton agar (Difco). One Petri dish containing only the Mueller Hinton agar served as control for bacterial growth. Each Petri dish was inoculated with a multi-point inoculator (Denley), which transfered 0.6 μl of a 1:100 diluted 18 hours culture of the appropriate test bacterium. After 16 to 18 hours of incubation at 37° C., the Petri dishes were examined for growth of bacteria. The lowest concentration of the compound which causes complete inhibition of growth is taken as the MIC.

Str. pyogenes 77A = assay: agar dilution test, MIC, Str. pyogenes 77A; details: Streptococcus pyogenes, Mueller Hinton agar, 16 to 18 hours, 37° C., read-out: Minimum Inhibitory Concentration
Description: as §1, §2

[1] = tested on: a variety of microorganisms, particularly β-lactamase producing organisms; assay: antibacterial activity compared with the corresponding unsubstituted 3-phenoxy compound; details: against a variety of microorganisms
Description: as §1, §2

Ent. cloacae 1321 E = assay: agar dilution test, MIC, Ent. cloacae 1321 E; details: Enterobacter cloacae, Mueller Hinton agar, 16 to 18 hours, 37° C., read-out: Minimum Inhibitory Concentration
Description: as §1, §2

E. coli TEM = assay: agar dilution test, MIC, E. coli TEM; details: Escherichia coli, 18 h, read-out: Minimum Inhibitory Concentration
Description: as §1, §2

E. coli 1507 E = assay: agar dilution test, MIC, E. coli 1507 E; details: Escherichia coli, Mueller Hinton agar, 16 to 18 hours, 37° C., read-out: Minimum Inhibitory Concentration
Description: as §1, §2

E. coli KN 126 = assay: agar dilution test, MIC, E. coli KN 126; details: Escherichia coli, KN126, Mueller Hinton agar, 16 to 18 hours, 37° C., read-out: Minimum Inhibitory Concentration
Description: as §1, §2

Staph. aureus 503 = assay: agar dilution test, MIC, Staph. aureus 503; details: Staphylococcus aureus, Mueller Hinton agar, 16 to 18 hours, 37° C., read-out: Minimum Inhibitory Concentration
Description: as §1, §2

Staph. aureus 285 = assay: agar dilution test, MIC, Staph. aureus 285; details: Staphylococcus aureus, Mueller Hinton agar, 16 to 18 hours, 37° C., read-out: Minimum Inhibitory Concentration
Description: as §1, §2

Bac. subtilis ATCC 6633 = assay: agar dilution test, MIC, Bac. subtilis ATCC 6633; details: Bacillus subtilis, ATCC6633, Mueller Hinton agar, 16 to 18 hours, 37° C., read-out: Minimum Inhibitory Concentration
Description: as §1, §2

E. coli 055 = assay: agar dilution test, MIC, E. coli 055; details: Escherichia coli, Mueller Hinton agar, 16 to 18 hours, 37° C., read-out: Minimum Inhibitory Concentration
Description: as §1, §2

Kl. aerog. 1522 E = assay: agar dilution test, MIC, Kl. aerog. 1522 E; details: Mueller Hinton agar, 16 to 18 hours, 37° C., read-out: Minimum Inhibitory Concentration
Description: as §1, §2

Salm. typhimurium MZ II = assay: agar dilution test, MIC, Salm. typhimurium MZ II; details: Salmonella enterica, Mueller Hinton agar, 16 to 18 hours, 37° C., read-out: Minimum Inhibitory Concentration
Description: as §1, §2

Staph. aureus SG 511 = assay: agar dilution test, MIC, Staph. aureus SG 511; details: Staphylococcus aureus, SG511, Mueller Hinton agar, 16 to 18 hours, 37° C., read-out: Minimum Inhibitory Concentration
Description: as §1, §2

E. coli DC2 = assay: agar dilution test, MIC, E. coli DC2; details: Escherichia coli, Mueller Hinton agar, 16 to 18 hours, 37° C., read-out: Minimum Inhibitory Concentration
Description: as §1, §2

Str. faecium D = assay: agar dilution test, MIC, Str. faecium D; details: Enterococcus faecium, Mueller Hinton agar, 16 to 18 hours, 37° C., read-out: Minimum Inhibitory Concentration
Description: as §1, §2

Str. pyogenes 308 A = assay: agar dilution test, MIC, Str. pyogenes 308 A; details: Streptococcus pyogenes, Mueller Hinton agar, 16 to 18 hours, 37° C., read-out: Minimum Inhibitory Concentration
Description: as §1, §2

With `C[C@@H](O)[C@H]1C(=O)N2C(C(=O)O)=C(Oc3ccc(C(N)=O)cc3)S[C@H]12` [Ra = 4-CONH2, 5R-3-(4-carbamoylphenoxy)-6S-(1R-hydroxyethyl)-7-oxo-4-thia-1-azabicyclo[3,2,0]hept-2-ene-2-carboxylate] the MIC (Kl. aerog. 1082 E) was 0.39 µg/mL (≈ 1.11 µM), the MIC (Str. pyogenes 77A) was 0.05 µg/mL (≈ 0.143 µM) and the “antibacterial activity versus the corresponding unsubstituted 3-phenoxy compound” value [1] was “greater antibacterial activity”. The MIC (Ent. cloacae 1321 E) was 0.78 µg/mL (≈ 2.23 µM), the MIC (E. coli TEM) was 0.39 µg/mL (≈ 1.11 µM) and the MIC (E. coli 1507 E) was 0.39 µg/mL (≈ 1.11 µM). It also gave an MIC (E. coli KN 126) of 0.39 µg/mL (≈ 1.11 µM), an MIC (Staph. aureus 503) of 0.1 µg/mL (≈ 0.285 µM) and an MIC (Staph. aureus 285) of 0.1 µg/mL (≈ 0.285 µM). For the same molecule, the MIC (Bac. subtilis ATCC 6633) was 0.05 µg/mL (≈ 0.143 µM), the MIC (E. coli 055) was 0.19 µg/mL (≈ 0.542 µM) and the MIC (Kl. aerog. 1522 E) was 0.78 µg/mL (≈ 2.23 µM). The MIC (Salm. typhimurium MZ II) was 0.78 µg/mL (≈ 2.23 µM), the MIC (Staph. aureus SG 511) was 0.05 µg/mL (≈ 0.143 µM) and the MIC (E. coli DC2) was 0.78 µg/mL (≈ 2.23 µM). The MIC (Str. faecium D) was 6.25 µg/mL (≈ 17.8 µM) and the MIC (Str. pyogenes 308 A) was 0.025 µg/mL (≈ 0.0714 µM).
